The assay deals with candidate biomarker gene transcripts (Ccl21, Col18a1, Cxcl12, Cxcl13, Dmp1, Frzb) in rat Hy/Su lungs. Kind of assay: Candidate biomarker mRNA levels (QPCR) in lung in the hypoxia/Sugen rat model of PH following treatment with Imatinib. It is filed as in vivo. Here is the method:
Sugen (250 mg; SU5416; Sigma-Aldrich®) was dissolved in vehicle (12.5 ml; 0.5% (wt/vol) carboxyl methylcellulose sodium, 0.9% (wt/vol) NaCl, 0.4% (vol/vol) polysorbate, 0.9% (vol/vol) benzyl alcohol in deionized water), sonicated for 15 min and then vortexed. On day 0, animals were anaesthetized, weighed and received Sugen 20 mg/kg by sub-cutaneous injection. […] Control animals remained in room air (21% O2) to serve as normoxic controls for the study. After 2 weeks, all animals were removed from the hypoxia chamber. At week 4, the animals were subjected to echocardiographic measurements under sevoflurane anaesthesia and monitored closely until fully recovered. Animals underwent RV catheterization for measurement of right ventricular pressure (RVP) under a mixture of ketamin and medetomidine anaesthesia. Following euthanasia by Schedule 1, the left lobe of the lung was removed, inflated and fixed in 10% formalin and embedded in paraffin for histological analysis. Lobes of the right lung were snap frozen for transcriptional profiling.
Frozen rat lung samples, collected in TT2 tissue bags (K Bioscience® Cat #520021) were crushed using the Covaris CryoPrep CP02. Total RNA from the crushed lung samples was extracted by RNeasy Mini kit according to the manufacturer's protocol (Qiagen™). Genomic DNA was removed by treatment with DNase I (Turbo DNase kit, Invitrogen). The exact quantification of RNA was determined with a NanoDrop ND-1000 spectrophotometer. RNA quality was assessed by analyzing 18S and 28S rRNAs by microfluidics-based electrophoresis on a 2100 Bioanalyzer (Agilent Technologies, Santa Clara, Calif.).
All animal procedures were conducted as described above.
In this study, following administration of an initial dose of Sugen on day 0 and a period of 14 days in a hypoxia chamber following, rats were administered 100 mg/kg of Imatinib or vehicle control daily for a further two weeks.
Following euthanasia by Schedule 1, the left lobe of the lung was removed, inflated and fixed in 10% formalin and embedded in paraffin for histological analysis, by airway inflation. Tissue sections (3 μm) were stained with antibodies against von Willebrand factor (vWF) and α-smooth muscle actin (α-SMA). Slides were examined using a DMLB and confocal microscope, digital camera, and IM50 imaging software (Leica Microsystems, London, UK). Small pulmonary vessels (10-100 μm diameter indicated by vWF staining) were assessed for degrees of circumferential α-SMA-positive staining indicative of muscularisation. Lobes of the right lung were snap frozen for candidate biomarker mRNA expression measurements. Total RNA was extracted and underwent quality control as mentioned in section above.
cDNA was synthesised using the High Capacity RNA-to-cDNA Kit (Invitrogen) according to the kit manufacturer's protocol. QPCR was performed on an ABI Prism 7900HT sequence detection system (Applied Biosystems, USA), using TaqMan Universal PCR Master Mix (Applied Biosystems). Taqman assays were purchased from Applied Biosystems®. Relative expression was normalised to a combination of 10 different housekeeping genes. Data were analyzed using the SDS RQ Manager, software (Applied Biosystems, version 2.4). Normalised gene expression values for each gene (2^−Δct) were plotted and analysed using a two-way ANOVA in GraphPad Prism 6.02.

The mark [1] stands for this setting: rat Hy/Su lungs, Imatinib 100 mg/kg daily for two weeks vs vehicle, QPCR.

For `Cc1ccc(NC(=O)c2ccc(CN3CCN(C)CC3)cc2)cc1Nc1nccc(-c2cccnc2)n1` [Imatinib], the “CCL21 mRNA expression levels in lung samples” value (day 28, imatinib group vs vehicle treated animals (increased vs naïve controls)) is “decrease”. Besides, under setting [1], the “Ccl21 gene transcript in lung” value was “down-regulated”, the “Col18a1 gene transcript in lung” value is “down-regulated”, the “Cxcl12 gene transcript in lung” value is recorded as “down-regulated” and the “Cxcl13 gene transcript in lung” value is recorded as “down-regulated”. Under setting [1], the “Dmp1 gene transcript in lung” value is reported as “down-regulated” and the “Frzb gene transcript in lung” value is “down-regulated”.

(Values after patent US12012636B2, “Pulmonary hypertension biomarker” (NOVARTIS AG, priority 2014, dated 2024).)
